US11071747B2, “Use of NAD precursors for breast enhancement” (UNIVERSITY OF IOWA RESEARCH FOUNDATION, priority 2016, dated 2021)
“Also recorded” adds a separate entry of the source.

How the values were obtained:
[1] = tested on: mammary gland of rats; assay: Xylene clearing of mammary adipose tissue of NR-fed rats; type: in vivo
Text: (§1) FIGS. 5A-B. NR-supplemented mammary tissue is partially resistant to xylene extraction. FIG. 5A. […] Eight month-old female mice were on NC or NR diet for six weeks. Mammary glands #4-5 were isolated, fixed, stained with Carmine/Alum stain and xylene was use to extract fat. […] FIG. 5B. NR-fed rats have mammary gland with a different fat composition.

[2] = tested on: mammary glands of virgin female mice; assay: NR oral supplementation in virgin female mice, mammary gland development; type: in vivo
Text: FIGS. 2A-E. NR oral supplementation promotes mammary gland development in virgin female mice (non-lactating females). FIG. 2A. […] FIG. 2B. Carmine/Alum staining of mammary glands. FIG. 2C. Quantification of mammary gland ductal length can be assessed by taking the measurement of the left (L1), right (L2), top (L3) and bottom (L4) branchings expressed in cm. FIG. 2D. […] FIG. 2E.

[3] = tested on: mammary glands #4-5 of female mice; assay: Xylene extraction of fat from stained mammary glands of NR-fed female mice; type: in vivo; details: eight month-old female mice, NR diet six weeks
Text: as §1, with “composition. […] Eight month-old female mice were on NC or NR diet for six weeks. Mammary glands #4-5 were isolated, fixed, stained with Carmine/Alum stain and subjected to an extraction with xylene to remove fat.” for “composition.”

[4] = tested on: mammary gland #4-5 and brown adipose tissue of female rats; assay: NR diet in virgin female rats, mammary gland and brown adipose tissue weight; type: in vivo; details: NR diet vs normal chow
Experimental: FIGS. 3A-C. […] Adipose tissues of female rats on normal chow diet (NC) or normal chow with nicotinamide riboside (NR). FIG. 3A. Mammary gland #4-5 were isolated and the weight was recorded. […] FIG. 3B. Images of dissected mammary gland #4-5. FIG. 3C. Weight of brown adipose tissue (BAT). To determine if the effect of NR on females was a mouse-specific phenomenon, additional experiments were performed. Specifically, virgin female rats were fed either NC or NR diets prior to dissection.

[5] = tested on: mammary glands #4 and 5; assay: NR diet for six weeks in eight month-old female and male mice, mammary gland weight; type: in vivo; details: NR diet six weeks vs NC
Experimental: FIG. 4. NR increases mammary gland tissue weight of female but not male mice. Eight month-old mice were put on NC or NR diet for six weeks. Mammary glands #4 and 5 were measured and plotted by normalizing to the body weight of each mouse. […] In FIG. 4, eight month-old mice were put on normal chow (NC) or NC+NR (NR) diets for six weeks. Mammary glands #4 and 5 were measured and plotted by normalizing to the body weight of each mouse.

[6] = tested on: mammary glands of female rodents; assay: NR-supplemented diet in adult female rodents, overall findings; type: in vivo, mice and rats
Experimental: As described herein, a series of experiments were performed to examine the effect of nicotinamide riboside (NR) on mammary tissue. It was determined that the provision of NR in the diet of female mice and female rats promoted mammary development (e.g., increases mammary gland tissue weight). […] These experiments show the unanticipated and potentially value effect of supplementing females with NR or other NAD precursors.

[7] = tested on: mammary glands of lactating mice; assay: NR-supplemented diet in lactating female mice, mammary gland mass and Carmine/Alum staining; type: in vivo, C57BL/6N mice
Text: FIGS. 1A-B. NR increases the mass of mammary glands of lactating mice. C57BL/6 female mice were fed normal chow (NC) diet and mated to a C57BL/6 male. After gestation and birth, females remained on NC or were on or a diet supplemented with 3 g/kg nicotinamide riboside chloride (NR). At day 14, the females were sacrificed and mammary glands 1-5 were removed for analysis. FIG. 1A. […] FIG. 1B. Mammary glands 4 and 5 isolated from lactating females were stained with Carmine/Alum staining.
The data are based on a trial with female C57BL/6N mice raised in 12 hour light:dark cycles on Teklad 2920X chow (NC). It was asked whether addition of NR chloride (3 g/kg of chow) to the diet of female mice would augment mammary tissue. Accordingly, for 12 weeks prior to mating with a single C57BL/6N male, females were on either NC (n=4) or NC+NR (n=4). Females were maintained on the same diet for 14 days post-partum.

Structure (SMILES): NC(=O)c1ccc[n+]([C@@H]2O[C@H](CO)[C@@H](O)[C@H]2O)c1 [NR, nicotinamide riboside]
- clearing of mammary adipose tissue by xylene [1]: poorly cleared by xylene
- mammary gland with beige fat ([2]; twelve week-old virgin female mice, NR supplementation for two weeks): more mammary gland with beige fat
- surface area of mammary gland #4-5 ([2]; virgin female mice, NR oral supplementation): increases the surface area of mammary gland #4-5
- mammary gland ductal length measurements ([2]; virgin female mice, NR oral supplementation, L1-L4 branchings): increases ductal length measurements
- subcutaneous adipose tissue and epithelial duct branching ([2]; virgin mice, not exposed to males): significant increase of the subcutaneous adipose tissue and epithelial duct branching
- fat composition of the mammary gland [3]: changes the fat composition of the mammary gland
- fat remaining in mammary glands after xylene extraction ([3]; 1 week of incubation in xylene): more fat remaining
- weight of brown adipose tissue (BAT) ([4]; female rats): increases the mass of mammary gland #4 and #5 and brown adipose tissue (BAT)
- weight of mammary gland #4-5 ([4]; virgin female rats): increased the size of mammary tissues in rats; also recorded: more mammary gland tissue
- mammary gland #4 and 5 weight normalized to body weight ([5]; eight month-old female mice): more mammary gland tissue in comparison to the NC group
- mammary gland #4 and 5 weight normalized to body weight ([5]; eight month-old male mice): no significant increase in mammary tissue weight
- development of beige or brown fat ([6]; NR supplementation, female rodents): leads to development of beige or brown fat
- fat pad formation, epithelial branching, alveolar and lobule development of mammary glands ([6]; adult females, virginal or pregnant, diet supplemented with NR): increase in fat pad formation, epithelial branching, alveolar and lobule development
- mass of mammary glands ([7]; lactating C57BL/6 females, diet with 3 g/kg NR chloride vs normal chow, day 14 post-partum, mammary glands 1-5): more mammary tissue than those on normal chow; also recorded: more massive mammary glands
- lactating mammary tissue (Carmine/Alum staining) ([7]; lactating females, mammary glands 4 and 5, NR diet vs normal chow): more lactating mammary tissue
